According to patent publication US9029329B2, “Caspase-14 activator peptides and compositions comprising said peptides” (ISP Investments Inc., priority 2010, dated 2015):
No end group written: not given here.

Columns and labels:
[1] = tested on: caspase-14; assay: Caspase-14 expression in normal human keratinocytes by immunofluorescence; type: cell-based; conditions: NHKs, peptide at 1% or 3%, 24 hours; dose-dependent, greater at 3% than at 1%
Method: Cultured normal human keratinocytes, NHKs, were treated with 1% or 3%-peptide SEQ ID NO: 2 for 24 hours. The cells were then washed, fixed with 3.7%-paraformaldehyde using 0.1%-triton in the presence of bovine serum albumin (BSA) (diluted to 1/100th). The cells were incubated in the presence of a caspase-14-specific mouse monoclonal antibody (BD Biosciences), and then of a secondary antibody, coupled with a fluorescent marker. The cells were then examined by means of an epifluorescence microscope (Nikon® Eclipse E600 microscope).

[2] = tested on: caspase-14; assay: Caspase-14 expression by Western Blot in NHKs with or without caspase-14 siRNA; type: cell-based, human
Method: NHK cells were cultured in 6-well plates up to a confluence of 60% and then treated with 20 μL of 1%-peptide SEQ ID NO: 2. Then, 100 μL of a previously prepared mixture containing the siRNA of caspase-14 and the transfecting agent were carefully added dropwise, on a well per well basis. The cell culture plate was incubated at 37° C. and at 5% CO2 for 72 hours. The culture medium was renewed every 2 days. Four conditions were implemented: • condition 1: control containing no siRNA nor peptide active ingredient • condition 2: siRNA-transfected cells, containing no peptide active ingredient • condition 3: cells that are not transfected but treated with the peptide active ingredient • condition 4: cells transfected with siRNA, and treated with the peptide active ingredient
The quantification of caspase-14 expression is observed using the conventional immunoblotting technique (Western Blot) carried out by means of an anti-caspase-14 antibody and according to a conventional protocol. To analyze the compensation brought about by the peptide in the NHKs transfected with siRNA, a comparison was performed with respect to non-treated NHKs whose gene had not been extinguished by siRNA.

[3] = tested on: cyclobutane-pyrimidine dimers; assay: CPD immunostaining on human skin biopsies subjected to UVB radiation; type: cell-based; conditions: UVB 200 mJ/cm^2, then topical 1% or 3% solution for 24 hours; repair dose-dependent
Method: Human skin biopsies were cultured at the air/liquid interface. These biopsies were subjected to UVB radiation at 200 mJ/cm^2. After irradiation, under a first condition, a 1%-solution of peptide SEQ ID NO: 2 was applied topically to the biopsies for 24 hours. Under a second condition, a 3%-solution of peptide SEQ ID NO: 2 was applied topically for 24 hours. Control conditions are achieved by the topical application of a PBS solution after irradiation.
For staining the cyclobutane-pyrimidine dimers, the skin biopsies were incorporated into paraffin and histological 3 μm thick sections were made. The slides were deparaffinized, hydrated and subjected to immunostaining with an antibody directed against cyclobutane-pyrimidine dimers (MBL D194-1, mouse monoclonal), followed by a suitable secondary antibody (Invitrogen™ A21202), coupled with a fluorescent marker. The skin sections were then examined with an epifluorescence microscope (Nikon® Eclipse E 80i microscope).

[4] = tested on: pro/filaggrin; assay: Pro/filaggrin immunostaining in cultured human skin biopsies; type: cell-based; conditions: peptide at 1% or 3%, 24 hours and 72 hours, dose-dependent and increases with time
Method: Samples of human skin were cultured at the air/liquid interface. Under a first condition, the samples were treated with the 1% peptide SEQ ID NO: 1 for 24 hours and 72 hours. Under a second condition, the samples were treated with the same peptide but at a concentration of 3% for 24 hours and 72 hours.
These skin samples were thereafter fixed with formaldehyde and then incorporated in paraffin. Sections 2 to 3 μm in size were then made. Immunostaining was carried out after unmasking specific sites by incubation in pepsin. Immunostaining was then performed by means of a filaggrin-specific mouse monoclonal antibody (Tebu Santa Cruz), followed by a secondary antibody, coupled with a fluorescent marker. The skin sections were then examined using an epifluorescence microscope (Nikon® Eclipse E600 microscope).

[5] = tested on: NHK cells; assay: Comets test on UVB-irradiated NHK cells (DNA damage, Tail Moment); type: cell-based, human
Method: For this purpose, NHK cells were: • under condition a: cultured for 24 hours with the peptide compound of sequence SEQ ID NO: 3 at a concentration of 1% and 3%, and then irradiated with UVB radiation at 20 mJ/cm^2, in order to observe the protective effect of the peptide active ingredient on the cells; • under condition b: irradiated, in a first step, with UVB radiation at 20 mJ/cm^2, and then treated for 24 hours with said peptide compound at a concentration of 1% and 3%, in order to observe the repairing effect of the active ingredient on the cells.
The cells were then removed by trypsination from their carrier, and then centrifuged at 900 rpm for 5 minutes before being concentrated and counted.
A specific cell count (25,000 cells) was then incorporated into a 0.75% Low Melting agarose gel, and then deposited on a glass slide previously coated with 1% agarose. The slides were then immersed in a lysis solution for 1.5 hours at 4° C., and then in an alkaline solution for 20 minutes at 4° C. The cells were then lysed and the DNA denatured. The slides were immersed in an electrophoresis solution before applying an electric field (20 V-250 mA). The thus denatured DNA was subjected to migration within an agarose gel at 4° C. Applying a DNA fluorescent dye on the slides (2 μg/ml propidium iodide) allowed the DNA to be observed in the form of comets in those cases where it had been damaged.
Quantification software is used to determine the average Tail Moment applied to each condition being tested. This parameter provides information on the level of DNA damage: the higher it is, the greater the DNA damage.

## Ile-Gln-Ala-Cys-Arg-Gly-NH2 (IQACRG-NH2) [peptide SEQ ID NO: 2]
[1]
  light intensity (caspase-14 fluorescence) with respect to the control conditions: increase
[2]; non-transfected NHKs, 1% peptide, 72 hours (condition 3 vs condition 1)
  increase in caspase-14 protein expression with respect to the control: 20.9%
[2]; siRNA-transfected NHKs treated with 1% peptide, 72 hours (condition 4 vs condition 1)
  decrease in caspase-14 protein expression with respect to the control conditions: 14%
[3]
  CPD fluorescence compared with the control conditions with UVB radiation: much weaker fluorescence

## Asp-Pro-Ile-Gln-Ala-Cys-Arg-Gly-NH2 (DPIQACRG-NH2) [peptide SEQ ID NO: 1]
[4]
  pro/filaggrin staining: increase

## Asn-Arg-Ile-Gln-Ala-Cys-Arg-Gly-NH2 (NRIQACRG-NH2) [peptide SEQ ID NO: 3]
[5]; condition a: 24 hours pretreatment at 1%, then UVB 20 mJ/cm^2, vs UVB control
  Tail Moment decrease: 57%
[5]; condition a: 24 hours pretreatment at 3%, then UVB 20 mJ/cm^2, vs UVB control
  Tail Moment decrease: 57%
[5]; condition b: UVB 20 mJ/cm^2, then 24 hours treatment at 1%
  Tail Moment decrease: 31%
[5]; condition b: UVB 20 mJ/cm^2, then 24 hours treatment at 3%
  Tail Moment decrease: 58%
